Test results as given in article PMC12016531 (Applied and Environmental Microbiology, 2025).

Key:
[1] = system: Bacillus cereus CMCC63301; assay: Intracellular accumulation of UDP-MurNAc-pentapeptide; format: cell-based; details: mycoidesin 1× and 2× MIC, vancomycin 10× MIC; 60 min; chloramphenicol 130 µg/mL pre-incubation 15 min; HPLC, MS
Protocol: Bacillus cereus CMCC63301 and L. monocytogenes ATCC19111 were grown to an OD600 of 0.3 and incubated with chloramphenicol (130 µg/mL) for 15 min. Mycoidesin (1× and 2× MIC) and vancomycin (10× MIC; positive control) were added and incubated for 60 min. The cells were collected, added to boiling water, treated for 15 min, centrifuged, and the supernatant was lyophilized. The intracellular accumulation of the peptidoglycan precursor UDP-MurNAc-pentapeptide was analyzed using HPLC (Hypersil ODS column) and identified via mass spectrometry ([27]).

[2] = system: L. monocytogenes ATCC 13932; assay: MIC/MBC microdilution; format: cell-based, Listeria monocytogenes; details: lowest concentration that killed 99.9%; TSB-YE; highest concentration 100 µM
L. monocytogenes NCT0890 = assay: MIC/MBC microdilution; format: cell-based, Listeria monocytogenes; details: lowest concentration that killed 99.9%; TSB-YE; highest concentration 100 µM
[3] = system: L. monocytogenes ATCC BAA-751; assay: MIC/MBC microdilution; format: cell-based, Listeria monocytogenes; details: lowest concentration that killed 99.9%; TSB-YE; highest concentration 100 µM
[4] = system: L. monocytogenes CICC 21632; assay: MIC/MBC microdilution; format: cell-based, Listeria monocytogenes; details: lowest concentration that killed 99.9%; TSB-YE; highest concentration 100 µM
[5] = system: L. monocytogenes ATCC 19116; assay: MIC/MBC microdilution; format: cell-based, Listeria monocytogenes; details: lowest concentration that killed 99.9%; TSB-YE; highest concentration 100 µM
[6] = system: L. monocytogenes ATCC 51780; assay: MIC/MBC microdilution; format: cell-based, Listeria monocytogenes; details: lowest concentration that killed 99.9%; TSB-YE; highest concentration 100 µM
L. monocytogenes LM605 = assay: MIC/MBC microdilution; format: cell-based, Listeria monocytogenes; details: lowest concentration that killed 99.9%; TSB-YE; highest concentration 100 µM
L. monocytogenes LM201 = assay: MIC/MBC microdilution; format: cell-based, Listeria monocytogenes; details: lowest concentration that killed 99.9%; TSB-YE; highest concentration 100 µM
[7] = system: L. monocytogenes CMCC 54002; assay: MIC/MBC microdilution; format: cell-based, Listeria monocytogenes; details: lowest concentration that killed 99.9%; TSB-YE; highest concentration 100 µM
B. cereus CMCC63301 = assay: Potassium release and SEM (cell membrane damage); format: cell-based, Bacillus cereus; details: potassium release 1×, 2×, 4× MIC, 1 h; SEM 2× and 4× MIC, 3 h, 30°C
Protocol: (§1) The amount of potassium released was measured using a HI96750 Potassium Photometer.
(§2) Bacillus cereus CMCC63301 and L. monocytogenes ATCC19111 were grown in TSB medium to an OD600 of 0.3. […] The cells were harvested after centrifugation (6,000 × g, 10 min), washed with PBS buffer thrice, and fixed with 2.5% (vol/vol) glutaraldehyde for 12 h at 4°C. Subsequently, the cells were subjected to gradient dehydration for 10 min, treated with isoamyl acetate for 10 min, dried with a lyophilizer for 12 h, coated with gold-palladium, and observed using a Zeiss Gemini360 instrument ([18]).

[8] = system: L. monocytogenes ATCC 19114; assay: MIC/MBC microdilution; format: cell-based, Listeria monocytogenes; details: lowest concentration that killed 99.9%; TSB-YE; highest concentration 100 µM
[9] = system: L. monocytogenes ATCC 7644; assay: MIC/MBC microdilution; format: cell-based, Listeria monocytogenes; details: lowest concentration that killed 99.9%; TSB-YE; highest concentration 100 µM
[10] = system: Bacillus cereus CMCC63301; assay: Time-kill curves (OD600 and CFU); format: cell-based
Source text: Cell growth was monitored hourly by measuring CFU on TSB plates and OD600 values of the cultures.

[11] = system: L. monocytogenes ATCC 19112; assay: MIC/MBC microdilution; format: cell-based, Listeria monocytogenes; details: lowest concentration that killed 99.9%; TSB-YE; highest concentration 100 µM
[12] = system: Salmonella Typhimurium ATCC 14028; assay: MIC/MBC microdilution; format: cell-based; details: NB, highest concentration 100 µM
Protocol: (§3) The microdilution method ([25]) was used to measure the MIC of mycoidesin against indicator strains (Table S2). HPLC-purified mycoidesin was weighed and dissolved in a liquid culture medium to prepare various concentrations of mycoidesin (200.00, 100.00, 50.00, 25.00, 12.50, 6.25, 3.13, 1.56, 0.78, 0.39, 0.20, and 0.10 µM). A volume of 50 µL of different concentrations of mycoidesin solutions and 50 µL culture (1 × 10^6 CFU/mL) of the indicator strain were mixed in 96-well plates. The final concentrations of mycoidesin were 100.00, 50.00, 25.00, 12.50, 6.25, 3.13, 1.56, 0.78, 0.39, 0.20, 0.10, and 0.05 µM. […] The minimum bactericidal concentration (MBC) was the lowest concentration that killed 99.9% of the bacterial population. Nisin A was purified (Cayman Chemical, USA) as previously described ([26]) and was used to measure and compare the MIC values of L. monocytogenes strains and mycoidesin.

[13] = system: Acinetobacter baumannii ATCC 19606; assay: MIC/MBC microdilution; format: cell-based; details: NB, highest concentration 100 µM
Protocol: as §3

[14] = system: Klebsiella pneumoniae CMCC 46117; assay: MIC/MBC microdilution; format: cell-based; details: NB, highest concentration 100 µM
Protocol: as §3

[15] = system: Shigella serogroups CMCC 51105; assay: MIC/MBC microdilution; format: cell-based; details: NB, highest concentration 100 µM
Protocol: as §3

[16] = system: Escherichia coli ATCC 25922; assay: MIC/MBC microdilution; format: cell-based; details: NB, highest concentration 100 µM
Protocol: as §3

[17] = system: L. monocytogenes ATCC19111; assay: Potassium release and SEM (cell membrane damage); format: cell-based, Listeria monocytogenes; details: potassium release 1×, 8×, 32× MIC, 1 h; SEM 8× and 32× MIC, 3 h, 30°C
Protocol: as §1, §2

[18] = system: L. monocytogenes ATCC 19118; assay: MIC/MBC microdilution; format: cell-based, Listeria monocytogenes; details: lowest concentration that killed 99.9%; TSB-YE; highest concentration 100 µM
[19] = system: L. monocytogenes ATCC 19117; assay: MIC/MBC microdilution; format: cell-based, Listeria monocytogenes; details: lowest concentration that killed 99.9%; TSB-YE; highest concentration 100 µM
[20] = system: all tested gram-negative strains; assay: MIC/MBC microdilution, summary over gram-negative strains; format: cell-based; details: up to 100 µM
Protocol: as §3

[21] = system: L. monocytogenes ATCC 19113; assay: MIC/MBC microdilution; format: cell-based, Listeria monocytogenes; details: lowest concentration that killed 99.9%; TSB-YE; highest concentration 100 µM
[22] = system: L. monocytogenes ATCC 19115; assay: MIC/MBC microdilution; format: cell-based, Listeria monocytogenes; details: lowest concentration that killed 99.9%; TSB-YE; highest concentration 100 µM
[23] = lowest concentration that killed 99.9%

C/C=C1\NC(=O)CNC(=O)[C@H](CCSC)NC(=O)[C@@H]2CS[C@@H](C)[C@@H](NC(=O)[C@@H]3CSC[C@@H](NC(=O)[C@H](CC(C)C)NC(=O)[C@H](CC(N)=O)NC(=O)[C@@H](N)Cc4ccc(O)cc4)C(=O)N[C@@H](C)C(=O)N[C@@H](C)C(=O)N[C@@H]([C@@H](C)CC)C(=O)N[C@@H](C)C(=O)N[C@@H](CC(=O)O)C(=O)N[C@@H](C)C(=O)N[C@@H](C)C(=O)NCC(=O)N[C@@H](CC(C)C)C(=O)N[C@@H](CCCCN)C(=O)NCC(=O)N[C@@H](CC(N)=O)C(=O)N[C@@H](Cc4ccc(O)cc4)C(=O)NCC(=O)N[C@@H](CCCCN)C(=O)N[C@@H](Cc4ccccc4)C(=O)N3)C(=O)N[C@@H](Cc3ccc(O)cc3)C(=O)N[C@H](CSC[C@@H](C(=O)NCC(=O)N[C@@H](CO)C(=O)O)NC(=O)[C@H](CO)NC(=O)[C@H](C(C)C)NC1=O)C(=O)N[C@@H](C)C(=O)N[C@@H](CCC(=O)O)C(=O)N2 [mycoidesin]
Intracellular accumulation of UDP-MurNAc-pentapeptide [1]: observed | MBC [2]: NA (No activity was detected even at the highest concentration of mycoidesin (100 µM)) | MBC (L. monocytogenes NCT0890): NA (No activity was detected even at the highest concentration of mycoidesin (100 µM)) | MBC [3]: NA (No activity was detected even at the highest concentration of mycoidesin (100 µM)) | MBC [4]: NA (No activity was detected even at the highest concentration of mycoidesin (100 µM)) | MBC [5]: NA (No activity was detected even at the highest concentration of mycoidesin (100 µM)) | MBC [6]: NA (No activity was detected even at the highest concentration of mycoidesin (100 µM)) | MBC (L. monocytogenes LM605): NA (No activity was detected even at the highest concentration of mycoidesin (100 µM)) | MBC (L. monocytogenes LM201): NA (No activity was detected even at the highest concentration of mycoidesin (100 µM)) | MBC [7]: NA (No activity was detected even at the highest concentration of mycoidesin (100 µM)) | cell membrane damage (B. cereus CMCC63301): caused damage to the cell membrane | MBC [8]: NA (No activity was detected even at the highest concentration of mycoidesin (100 µM)) | MBC [9]: NA (No activity was detected even at the highest concentration of mycoidesin (100 µM)) | effect on growth ([10]; 1× MIC (1.56 µM), TSB, 30°C, 3 h, OD600 and CFU): suppressed the growth | effect on growth ([10]; 2× MIC (3.13 µM), TSB, 30°C, 3 h, OD600 and CFU): completely inhibited its growth | effect on viable cells ([10]; 4× and 8× MIC (6.25 and 12.50 µM), TSB, 30°C, 3 h, OD600 and CFU): caused cell death after 2 h of treatment | type of antimicrobial effect ([10]; high concentrations (2×–8× MIC, 3.13–12.5 µM)): bactericidal effect | type of antimicrobial effect ([10]; low concentration (1× MIC, 1.56 µM)): bacteriostatic effect | MBC [11]: NA (No activity was detected even at the highest concentration of mycoidesin (100 µM)) | MBC [12, 23]: NA (No activity was detected even at the highest concentration of mycoidesin (100 µM)) | MIC ([12]; microdilution, 30°C, 16 h): NA (No activity was detected even at the highest concentration of mycoidesin (100 µM)) | MBC [13, 23]: NA (No activity was detected even at the highest concentration of mycoidesin (100 µM)) | MIC ([13]; microdilution, 30°C, 16 h): NA (No activity was detected even at the highest concentration of mycoidesin (100 µM)) | MBC [14, 23]: NA (No activity was detected even at the highest concentration of mycoidesin (100 µM)) | MIC ([14]; microdilution, 30°C, 16 h): NA (No activity was detected even at the highest concentration of mycoidesin (100 µM)) | MBC [15, 23]: NA (No activity was detected even at the highest concentration of mycoidesin (100 µM)) | MIC ([15]; microdilution, 30°C, 16 h): NA (No activity was detected even at the highest concentration of mycoidesin (100 µM)) | MBC [16, 23]: NA (No activity was detected even at the highest concentration of mycoidesin (100 µM)) | MIC ([16]; microdilution, 30°C, 16 h): NA (No activity was detected even at the highest concentration of mycoidesin (100 µM)) | cell membrane damage [17]: did not cause L. monocytogenes cell membrane damage or cell death | MBC [18]: NA (No activity was detected even at the highest concentration of mycoidesin (100 µM)) | MBC [19]: NA (No activity was detected even at the highest concentration of mycoidesin (100 µM)) | antimicrobial activity [20]: no antimicrobial activity | MBC [21]: NA (No activity was detected even at the highest concentration of mycoidesin (100 µM)) | MBC [22]: NA (No activity was detected even at the highest concentration of mycoidesin (100 µM))
